# Results published in ChEMBL document CHEMBL4382200, “Discovery of Novel 7-Aryl 7-Deazapurine 3'-Deoxy-ribofuranosyl Nucleosides with Potent Activity against Trypanosoma cruzi” (J Med Chem, 2018).
# What was measured:
# [1] = Therapeutic index, ratio EC50 for human MRC5 SV2 cells to EC50 for Trypanosoma cruzi Tulahuen CL2 intracellular amastigotes; format: toxicity, cell-based; details: read-out: Ratio EC50
# [2] = tested on: Trypanosoma cruzi; experiment: Antiparasitic activity against Trypanosoma cruzi Tulahuen CL2 intracellular amastigotes expressing beta-galactosidase infected in human MRC5 SV2 cells after 7 days by chlorophenol red beta-D-galactopyranoside-based spectrophotometric analysis; format: functional, organism-based; details: Tulahuen CL2, MRC-5 SV2, 168 h, read-out: EC50
# [3] = Cytotoxicity against human MRC5 SV2 cells assessed as reduction in cell viability after 3 days resazurin-based fluorimetric assay; details: MRC-5 SV2, 72 h
SMILES,selectivity ratio [1],EC50 [2] [µM],EC50 [3] [µM]
CC(C)c1ccc(-c2cn([C@@H]3O[C@H](CO)C[C@H]3O)c3ncnc(N)c23)cc1,2.9,8.48,24.9
Nc1ncnc2c1c(-c1ccc([N+](=O)[O-])cc1)cn2[C@@H]1O[C@H](CO)C[C@H]1O,> 53,1.21,> 64
COc1ccc(-c2cn([C@@H]3O[C@H](CO)C[C@H]3O)c3ncnc(N)c23)cc1,10,2.38,24.3
Nc1ncnc2c1c(C1=CCCCC1)cn2[C@@H]1O[C@H](CO)C[C@H]1O,> 2,31.8,> 64
Cc1cc(-c2cn([C@@H]3O[C@H](CO)C[C@H]3O)c3ncnc(N)c23)ccc1Cl,80,0.21,16.7
Cc1cccc(-c2cn([C@@H]3O[C@H](CO)C[C@H]3O)c3ncnc(N)c23)c1,> 12,5.15,> 64
Nc1ncnc2c1c(-c1ccc3ccccc3c1)cn2[C@@H]1O[C@H](CO)C[C@H]1O,7,0.72,5
Nc1ncnc2c1c(-c1ccccc1)cn2[C@@H]1O[C@H](CO)C[C@H]1O,24,2.57,61.8
Nc1ncnc2c1c(-c1ccc(Cl)cc1Cl)cn2[C@@H]1O[C@H](CO)C[C@H]1O,44,0.45,19.6
Nc1ncnc2c1c(-c1ccc(OC(F)(F)F)cc1)cn2[C@@H]1O[C@H](CO)C[C@H]1O,29,1.39,40.4
Nc1ncnc2c1c(-c1cccc(C(F)(F)F)c1)cn2[C@@H]1O[C@H](CO)C[C@H]1O,4.4,11.2,49.6
Nc1ncnc2c1c(-c1ccc(C(F)(F)F)cc1)cn2[C@@H]1O[C@H](CO)C[C@H]1O,76,0.53,40
COc1ccc(-c2cn([C@@H]3O[C@H](CO)C[C@H]3O)c3ncnc(N)c23)cc1Cl,> 19,3.3,> 64
Nc1ncnc2c1c(C1CCCCC1)cn2[C@@H]1O[C@H](CO)C[C@H]1O,> 3,20.9,> 64
Cc1ccc(-c2cn([C@@H]3O[C@H](CO)C[C@H]3O)c3ncnc(N)c23)cc1Cl,66,0.27,17.8
